Tests used:
Experiment in all cases: relative viability (nuclei count vs DMSO), 5 days (fraction); higher = more cells survive
CAP-232 + Navitoclax = compound: C[C@H]([C@@H](C(=O)N)NC(=O)[C@@H]1CSSC[C@@H](C(=O)N[C@H](C(=O)N[C@@H](C(=O)N[C@H](C(=O)N1)CCCCN)CC2=CNC3=CC=CC=C32)CC4=CC=C(C=C4)O)NC(=O)[C@@H](CC5=CC=CC=C5)N)O [CAP-232] + CC1(C)CCC(c2ccc(Cl)cc2)=C(CN2CCN(c3ccc(C(=O)NS(=O)(=O)c4ccc(N[C@H](CCN5CCOCC5)CSc5ccccc5)c(S(=O)(=O)C(F)(F)F)c4)cc3)CC2)C1 [Navitoclax] (partner 0.5 µM)
Method in brief: (§1)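 One day after seeding in 1536-well plates, lung cancer cell lines were dosed by pin tool. Dosing was either single-drug or a fixed anchor-drug dose plus five library-drug doses (not always all listed) in √10 steps. After 5 days, nuclei were stained in one fix-and-stain step and counted on 4× images, and relative viability is the nuclei count of treated wells over that of vehicle wells, given as the median of duplicate plates.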

CAP-232 + Foretinib = compound: C[C@H]([C@@H](C(=O)N)NC(=O)[C@@H]1CSSC[C@@H](C(=O)N[C@H](C(=O)N[C@@H](C(=O)N[C@H](C(=O)N1)CCCCN)CC2=CNC3=CC=CC=C32)CC4=CC=C(C=C4)O)NC(=O)[C@@H](CC5=CC=CC=C5)N)O [CAP-232] + COc1cc2c(Oc3ccc(NC(=O)C4(C(=O)Nc5ccc(F)cc5)CC4)cc3F)ccnc2cc1OCCCN1CCOCC1 [Foretinib] (partner 0.25 µM)
Method in brief: as §1

CAP-232 + OSI-027 = compound: C[C@H]([C@@H](C(=O)N)NC(=O)[C@@H]1CSSC[C@@H](C(=O)N[C@H](C(=O)N[C@@H](C(=O)N[C@H](C(=O)N1)CCCCN)CC2=CNC3=CC=CC=C32)CC4=CC=C(C=C4)O)NC(=O)[C@@H](CC5=CC=CC=C5)N)O [CAP-232] + COc1cccc2cc(-c3nc([C@H]4CC[C@H](C(=O)O)CC4)n4ncnc(N)c34)[nH]c12 [OSI-027] (partner 0.5 µM)
Method in brief: as §1

CAP-232 + Tozasertib = compound: C[C@H]([C@@H](C(=O)N)NC(=O)[C@@H]1CSSC[C@@H](C(=O)N[C@H](C(=O)N[C@@H](C(=O)N[C@H](C(=O)N1)CCCCN)CC2=CNC3=CC=CC=C32)CC4=CC=C(C=C4)O)NC(=O)[C@@H](CC5=CC=CC=C5)N)O [CAP-232] + Cc1cc(Nc2cc(N3CCN(C)CC3)nc(Sc3ccc(NC(=O)C4CC4)cc3)n2)n[nH]1 [Tozasertib] (partner 0.1 µM)
Method in brief: as §1

CAP-232 + Pemetrexed = compound: C[C@H]([C@@H](C(=O)N)NC(=O)[C@@H]1CSSC[C@@H](C(=O)N[C@H](C(=O)N[C@@H](C(=O)N[C@H](C(=O)N1)CCCCN)CC2=CNC3=CC=CC=C32)CC4=CC=C(C=C4)O)NC(=O)[C@@H](CC5=CC=CC=C5)N)O [CAP-232] + Nc1nc2[nH]cc(CCc3ccc(C(=O)N[C@@H](CCC(=O)O)C(=O)O)cc3)c2c(=O)[nH]1 [Pemetrexed] (partner 0.2 µM)
Method in brief: as §1

Cell Line	relative viability (CAP-232 + Navitoclax; first compound 0.4 µM)	relative viability (CAP-232 + Navitoclax; first compound 1.265 µM)	relative viability (CAP-232 + Navitoclax; first compound 4 µM)	relative viability (CAP-232 + Navitoclax; first compound 12.65 µM)	relative viability (CAP-232 + Foretinib; first compound 0.4 µM)	relative viability (CAP-232 + Foretinib; first compound 1.265 µM)	relative viability (CAP-232 + Foretinib; first compound 4 µM)	relative viability (CAP-232 + Foretinib; first compound 12.65 µM)	relative viability (CAP-232 + OSI-027; first compound 0.4 µM)	relative viability (CAP-232 + OSI-027; first compound 1.265 µM)	relative viability (CAP-232 + OSI-027; first compound 4 µM)	relative viability (CAP-232 + OSI-027; first compound 12.65 µM)	relative viability (CAP-232 + Tozasertib; first compound 0.4 µM)	relative viability (CAP-232 + Tozasertib; first compound 1.265 µM)	relative viability (CAP-232 + Tozasertib; first compound 4 µM)	relative viability (CAP-232 + Tozasertib; first compound 12.65 µM)	relative viability (CAP-232 + Pemetrexed; first compound 0.4 µM)	relative viability (CAP-232 + Pemetrexed; first compound 1.265 µM)	relative viability (CAP-232 + Pemetrexed; first compound 4 µM)	relative viability (CAP-232 + Pemetrexed; first compound 12.65 µM)
NCI-H2009	1.15	1.14	1.13	1.04	1.23	1.17	1.21	1.07	0.667	0.585	0.719	0.358	0.757	0.713	0.823	0.684	1.07	1.06	1.11	1
NCI-H2023	1.15	1	1.06	0.579	0.899	0.946	0.766	0.294	0.429	0.359	0.447	0.124	0.348	0.332	0.379	0.139	0.246	0.257	0.178	0.0965
NCI-H2085	1.18	1.06	1.15	1.15	0.933	0.87	1.1	0.998	0.786	0.726	0.934	0.594	0.94	0.816	0.827	0.844	0.941	0.796	0.899	0.918
NCI-H2087	1.19	1.16	1.02	0.616	1.17	1.2	1.1	0.665	0.444	0.489	0.596	0.41	0.193	0.212	0.221	0.311	0.662	0.655	0.68	0.604
NCI-H2126	0.864	0.804	0.843	0.851	1.34	1.33	1.63	1.11	0.743	0.76	0.846	0.648	0.801	0.799	0.885	0.822	0.703	0.696	0.706	0.654
NCI-H2170	0.68	0.573	0.578	0.603	1	1.04	1.02	1.05	0.658	0.737	0.777	0.669	0.852	0.667	0.615	0.73	0.247	0.261	0.267	0.244
NCI-H2228	0.84	0.96	0.473	1.01	0.826	0.938	1.09	0.485	0.712	0.494	0.665	0.556	0.257	0.28	0.195	0.263	0.447	0.364	0.335	0.358
NCI-H2347	0.834	0.951	0.718	0.72	0.804	0.524	1.11	1.05	0.29	0.489	0.352	0.614	0.564	0.545	0.517	0.521	0.432	0.436	0.457	0.418
